In brackets after ≈: the same amount, converted by molar mass. Blank lines part the entries; values can stand above or below the molecule they belong to.
Legend:
HCT116 = experiment: MTT antiproliferative assay, HCT116; settings: Homo sapiens, HCT-116, 72 h, read-out: IC50 HCT116
Experimental: (§1) The inhibition of tumour cell growth was measured by a modified tetrazolium (MTT) salt assay, as previously described[39]. Cells were cultured in a 96-well plate and treated with culture medium alone or different concentrations of the compounds. The cells were incubated for 72 h, and then, the MTT assay reagent was added. After a 4 h incubation, the formazan product was quantitated at 570 nm. The IC50 values (the concentrations that gave rise to 50% inhibition of cell viability) were calculated using GraphPad Prism 6 using a variable slope (four parameters).

MDA-MB-231 = experiment: MTT antiproliferative assay, MDA-MB-231; settings: Homo sapiens, MDA-MB-231, 72 h, read-out: IC50 MDA-MB-231
Experimental: as §1

HepG2 = experiment: MTT antiproliferative assay, HepG2; settings: Homo sapiens, HepG2, 72 h, read-out: IC50 HepG2
Experimental: as §1

A549/taxol = experiment: MTT antiproliferative assay, Taxol-resistant A549; type: cell-based; settings: MTT, 72 h; Taxol-resistant A549; read-out: IC50 A549/taxol
Experimental: as §1

A549/cisplatin = experiment: MTT antiproliferative assay, cisplatin-resistant A549; type: cell-based; settings: Homo sapiens, MTT, 72 h, read-out: IC50 A549/cisplatin
Experimental: as §1

[1] = test system: HepG2, HCT116, MDA-MB-231 and A549 cells; experiment: MTT antiproliferative assay, cell line panel
Experimental: as §1

A549 = experiment: MTT antiproliferative assay, A549; settings: Homo sapiens, A549, 72 h, read-out: IC50 A549
Experimental: as §1

Water solubility by HPLC = type: physicochemical; settings: thermodynamic from solid; deionized water, stirred overnight, HPLC 290 nm; read-out: S, water solubility
Description: The physicochemical characteristics of compounds directly determine their potential drug-like properties. Assessing a compound’s physicochemical properties before performing in vivo evaluations can guide further studies and minimize the time and cost associated with drug discovery. Therefore, parallel to the in vivo study, these solubilities of these compounds in water were experimentally measured using high-performance liquid chromatography (HPLC). Based on the results of full wave scanning, 290 nm was chosen as the maximum absorption wavelength for HPLC detection.
A HPLC system with an ultraviolet (UV) detector was used to detect the solubility of the compounds. The optimal wavelength was 290 nm. Ethanol/water (85:15) was an efficient eluent at a flow rate of 0.5 mL/min. The compounds were stirred in deionized water overnight to maximize the retention of the compounds in solution. Then, the solutions were filtered and the supernatant was used as a fluid sample for HPLC detection. The permeability (Pe) of some of the compounds was tested with the help of a standard PAMPA (pION), as previously reported. PAMPA was performed on a PAMPA Explorer instrument (pION, Inc., Woburn, MA) with the PAMPA Explorer command software (Version 3.7.4.1). The compounds were diluted to 10 mM with the system solution buffer (pH 7.4). Then, 150 μL of the diluted compound solution was transferred to a UV plate, and the UV spectrum was collected and used as a reference. Then, paint the membrane with 5 μL of gastrointestinal tract (GIT) lipid. The acceptor chamber was filled with 200 μL of acceptor solution buffer, and the donor chamber was filled with 200 μL of diluted compound solution. The PAMPA sandwich was assembled and left at 25 °C for 4 h. The UV spectra (240–500 nm) from the donor and the acceptor were collected. The permeability coefficient was calculated with the PAMPA Explorer Command software (Version 3.7.4.1) based on the area under the curve (AUC) of the reference plate, the donor plate, and the acceptor plate. The permeability coefficient of the compound was tested for four times, and the data are shown as the average values. Ketoprofen (4.5×10^−6 cm/s) and propranolol (112.8×10^−6 cm/s) were used as the standards in this assay.

HepG2 tumours = experiment: HepG2 hepatoblastoma xenograft in nude mice; type: in vivo; settings: control groups of the IV study, dose not given
Experimental: Given the in vitro anti-tumour cell activity of 8n, we continued to evaluate its in vivo effect in hepatoblastoma xenograft models using previously reported methods, and the water-soluble anti-cancer drug 5-fluorouracil (5-FU) was used as a positive control. After tumours were established, the mice were IV injected with 2.5, 5, 10 or 50 mg/kg 8n; the lead compound DDO-6101 and antitumour drug 5-FU were used as controls. All mice had normal weights and quality of life in in vivo tests. […] The in vivo activity of 8n was also evaluated after oral administration. […] This observation may be attributed to the improved physicochemical properties of 8n compared to those of DDO-6101, such as aqueous solubility and cell membrane permeability, which were provided by modification with the carbamate moiety.
Figure 7 (A) The tumour diameters were measured and used to calculate the tumour volumes. The HepG2 xenograft-bearing mice were intravenously injected with 2.5, 5, 10 and 50 mg/kg 8n for 20 days. (B) After 20 days, mice were sacrificed and the individual tumours were weighed. *p < 0.05, […]; Student’s t-test (n = 6). (C) The tumour diameters were measured and used to calculate the tumour volumes. The HepG2 xenograft-bearing mice were orally administered 50 mg/kg 8n, 50 mg/kg DDO-6101 or 10 mg/kg 5-FU for 20 days.
All studies were performed in compliance with the relevant guidelines and regulations. Tumours on female nude mice were established by injecting 1×10^7 HepG2 cells on the dorsal surface. After four weeks, tumours of approximately 150 mm^3 were cut into pieces that were 3 mm×3 mm×3 mm in size and were then implanted in the dorsal surface of other female nude mice. One week later, mice implanted with xenografts of 100 mm^3 were selected, randomized, and […] injected with 2.5, 5, or 10-mg/kg 8n or vehicle daily for another three weeks. The tumour dimensions were measured daily with vernier calipers, and the tumour volumes were calculated using the formula: volume = (width)^2 × length/2.

[2] = target: Recombinant human Hsp90 protein; experiment: Hsp90 ATPase activity assay; type: biochemical; settings: ADP detection, ATP 100 μM
Description: Lianru Zhang, Brian S. J. Blagg, et al. reported that GA inhibited Hsp90 ATPase in vitro[21][38]. The effects of these compounds on Hsp90 ATPase activity were examined by measuring the ability of Hsp90 to hydrolyse ATP using a homogeneous time-resolved fluorescence (HTRF) assay to determine whether the caged-xanthone-derivatives of GA inhibited Hsp90. […] The inhibition of Hsp90 could decrease client protein levels. Based on the enzymatic, structural, and antiproliferative results, 8n was chosen for further investigation.
Figure 9 (A) The caged compounds (50 μM) inhibited the Hsp90 ATPase activity in a HTRF-based inhibition assay. (B) The IC50 values for the inhibition of Hsp90 ATPase by 8n, 8o and GA as detected by the HTRF Transcreener ADP kit. […] The amount of ADP generated was detected. […] (D) The mRNA expression of VEGF was determined by real-time quantitative reverse-transcriptase polymerase chain reaction (RT-PCR) and analysed by the delta Ct method. […]
To measure the Hsp90 ATPase activity, a ADP Hunter Plus Assay kit from DiscoverX was used as previously described. […] Then, the plate was incubated for another 0.5 h after the addition of ATP (100 μM), followed by addition of the detection reagent, and the fluorescence was measured at an excitation wavelength 540 nm and emission wavelength of 620 nm using a spectrophotometer (Varioskan multimode, Thermo). […]

[3] = design: method as in PMID 23167526; settings: cited from earlier work
Heps tumour = test system: Heps tumour; design: method as in PMID 25958244; settings: Heps-transplanted mice, intravenous (IV) administration; cited from earlier work

IC50 (HCT116): 1490 ± 170 nM
IC50 (MDA-MB-231): 970 ± 90 nM
IC50 (HepG2): 1070 ± 90 nM
IC50 (A549/taxol): 1620 ± 100 nM
IC50 (A549/cisplatin): 1530 ± 200 nM
IC50 ([1]; Homo sapiens, read-out: IC50 values, range over the cancer cell lines): 970 to 1490 nM
IC50 (A549): 3000 ± 800 nM
solubility (Water solubility by HPLC): 20 µM (≈ 8.45 µg/mL)
SMILES: CC(=O)Oc1cccc2c1C(=O)C1=CC3CC4C(C)(C)OC(CC=C(C)C)(C3=O)C14O2 (stereo not shown) [Compound 1]

IC50 (HCT116): 6100 ± 190 nM
IC50 (MDA-MB-231): 1800 ± 60 nM
IC50 (HepG2): 8550 ± 430 nM
solubility (Water solubility by HPLC): 10 µM (≈ 3.94 µg/mL)
SMILES: COc1cccc2c1C(=O)C1=CC3CC4C(C)(C)OC(CC=C(C)C)(C3=O)C14O2 (stereo not shown) [Compound 3]
fold less active than DDO-6101 ([1]; three cancer cell lines): 4–8 fold

SMILES: O=c1[nH]cc(F)c(=O)[nH]1 [Compound 5-FU, 5-fluorouracil, reference compound]
inhibition of the tumour volume, control groups (HepG2 tumours): 50.95%

SMILES: CO[C@H]1/C=C\C=C(/C)C(=O)NC2=CC(=O)C(NCCN(C)C)=C(C[C@@H](C)C[C@H](OC)[C@H](O)[C@@H](C)/C=C(\C)[C@@H]1OC(N)=O)C2=O [Compound 17-DMAG, 17-(Dimethylaminoethylamino)-17-demethoxygeldanamycin]
IC50 [2]: 919 nM

IC50 (HCT116): 710 ± 100 nM
IC50 (MDA-MB-231): 320 ± 90 nM
IC50 (HepG2): 1140 ± 90 nM
IC50 (A549/taxol): 460 ± 30 nM
IC50 (A549/cisplatin): 2110 ± 100 nM
IC50 (A549): 2590 ± 170 nM
solubility (Water solubility by HPLC): < 5 µM
SMILES: CC(C)=CCC12OC(C)(C)C3CC(C=C4C(=O)c5c(O)cccc5OC431)C2=O (stereo not shown) [DDO-6101, reference compound]
inhibition of the tumour volume, control groups (HepG2 tumours): 36.81%

SMILES: CC(C)=CCC12OC(C)(C)C3[C@@H](CN4CCN(C)CC4)C(C=C4C(=O)c5c(O)cccc5OC431)C2=O (stereo partly shown) [DDO-6267]
oral antitumor activity compared with GA [3]: better oral antitumor activity than GA

SMILES: C/C(=C\CC12OC(C)(C)C3CC(C=C4C(=O)c5c(O)cccc5OC431)C2=O)COC(=O)CN(C)C (stereo not shown) [DDO-6306]
inhibition of tumour growth (Heps tumour): 52.6%

Reference: publication PMC5073322, “Novel Natural Product-like Caged Xanthones Bearing a Carbamate Moiety Exhibit Antitumor Potency and Anti-Angiogenesis Activity In vivo” (Scientific Reports, 2016)
